Test results reported in patent US20080171783A1, “COMPOSITIONS AND METHODS FOR TREATING HYPERPROLIFERATIVE DISEASE” (Migenix Inc., priority 2006, published 2008).

Tests used:
human polymerase alpha = molecular target: T1, human polymerase alpha (Homo sapiens, UniProt P09884); test: Human polymerase alpha inhibition (Replizyme kit); format: biochemical; conditions: dose response
T1 construct: purchased Replizyme Ltd (Heslington, York, UK)
T1 sequence (P09884 1-1462): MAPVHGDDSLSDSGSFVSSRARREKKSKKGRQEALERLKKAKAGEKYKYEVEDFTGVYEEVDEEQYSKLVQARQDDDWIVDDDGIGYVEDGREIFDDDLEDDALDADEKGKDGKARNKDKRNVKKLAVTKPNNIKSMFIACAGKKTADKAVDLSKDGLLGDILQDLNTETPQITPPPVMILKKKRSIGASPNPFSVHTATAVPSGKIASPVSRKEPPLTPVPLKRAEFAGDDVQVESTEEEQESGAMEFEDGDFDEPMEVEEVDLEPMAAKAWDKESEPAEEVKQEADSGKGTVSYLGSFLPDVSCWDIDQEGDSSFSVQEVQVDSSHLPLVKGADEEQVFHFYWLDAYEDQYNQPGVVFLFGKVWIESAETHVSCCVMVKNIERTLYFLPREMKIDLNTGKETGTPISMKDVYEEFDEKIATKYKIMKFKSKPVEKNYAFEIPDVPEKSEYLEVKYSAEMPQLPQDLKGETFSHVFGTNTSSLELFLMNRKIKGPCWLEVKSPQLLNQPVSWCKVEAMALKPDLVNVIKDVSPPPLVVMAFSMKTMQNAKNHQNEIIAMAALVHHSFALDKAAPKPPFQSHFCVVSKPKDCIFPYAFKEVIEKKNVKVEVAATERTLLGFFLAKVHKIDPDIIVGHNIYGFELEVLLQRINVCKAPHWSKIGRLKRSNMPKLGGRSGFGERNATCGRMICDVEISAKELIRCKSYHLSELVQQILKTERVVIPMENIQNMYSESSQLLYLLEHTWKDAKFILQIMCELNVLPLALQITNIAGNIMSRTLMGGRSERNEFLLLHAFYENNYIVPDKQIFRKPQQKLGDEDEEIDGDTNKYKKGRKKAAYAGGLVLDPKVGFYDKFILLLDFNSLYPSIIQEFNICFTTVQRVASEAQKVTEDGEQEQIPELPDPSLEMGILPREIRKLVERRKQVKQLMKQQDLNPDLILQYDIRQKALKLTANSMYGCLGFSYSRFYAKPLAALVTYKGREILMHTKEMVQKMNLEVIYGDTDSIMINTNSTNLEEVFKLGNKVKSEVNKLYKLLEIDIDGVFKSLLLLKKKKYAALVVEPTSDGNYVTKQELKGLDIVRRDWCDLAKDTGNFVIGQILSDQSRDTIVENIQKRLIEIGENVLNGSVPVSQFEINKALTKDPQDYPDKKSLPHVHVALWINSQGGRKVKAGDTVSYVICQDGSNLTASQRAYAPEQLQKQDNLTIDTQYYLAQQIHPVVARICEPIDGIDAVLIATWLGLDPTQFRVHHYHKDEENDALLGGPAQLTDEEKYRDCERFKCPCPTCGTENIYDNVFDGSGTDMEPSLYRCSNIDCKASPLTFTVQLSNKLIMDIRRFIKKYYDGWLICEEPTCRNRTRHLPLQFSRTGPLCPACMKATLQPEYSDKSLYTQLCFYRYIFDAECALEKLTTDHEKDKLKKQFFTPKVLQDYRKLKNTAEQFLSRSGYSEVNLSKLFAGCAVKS
Method: (§1) Calf polymerase alpha and human polymerase alpha investigations were performed with a kit available from Replizyme Ltd (Heslington, York, UK).

Calf polymerase alpha = molecular target: T2, Calf polymerase alpha (Bos taurus, UniProt A0AAA9TD94); test: Calf polymerase alpha inhibition (Replizyme kit); format: biochemical; conditions: for inhibition at 10 µM: single point screening; for IC50: dose response
T2 construct: purchased Replizyme Ltd (Heslington, York, UK)
T2 sequence (A0AAA9TD94 1-1441): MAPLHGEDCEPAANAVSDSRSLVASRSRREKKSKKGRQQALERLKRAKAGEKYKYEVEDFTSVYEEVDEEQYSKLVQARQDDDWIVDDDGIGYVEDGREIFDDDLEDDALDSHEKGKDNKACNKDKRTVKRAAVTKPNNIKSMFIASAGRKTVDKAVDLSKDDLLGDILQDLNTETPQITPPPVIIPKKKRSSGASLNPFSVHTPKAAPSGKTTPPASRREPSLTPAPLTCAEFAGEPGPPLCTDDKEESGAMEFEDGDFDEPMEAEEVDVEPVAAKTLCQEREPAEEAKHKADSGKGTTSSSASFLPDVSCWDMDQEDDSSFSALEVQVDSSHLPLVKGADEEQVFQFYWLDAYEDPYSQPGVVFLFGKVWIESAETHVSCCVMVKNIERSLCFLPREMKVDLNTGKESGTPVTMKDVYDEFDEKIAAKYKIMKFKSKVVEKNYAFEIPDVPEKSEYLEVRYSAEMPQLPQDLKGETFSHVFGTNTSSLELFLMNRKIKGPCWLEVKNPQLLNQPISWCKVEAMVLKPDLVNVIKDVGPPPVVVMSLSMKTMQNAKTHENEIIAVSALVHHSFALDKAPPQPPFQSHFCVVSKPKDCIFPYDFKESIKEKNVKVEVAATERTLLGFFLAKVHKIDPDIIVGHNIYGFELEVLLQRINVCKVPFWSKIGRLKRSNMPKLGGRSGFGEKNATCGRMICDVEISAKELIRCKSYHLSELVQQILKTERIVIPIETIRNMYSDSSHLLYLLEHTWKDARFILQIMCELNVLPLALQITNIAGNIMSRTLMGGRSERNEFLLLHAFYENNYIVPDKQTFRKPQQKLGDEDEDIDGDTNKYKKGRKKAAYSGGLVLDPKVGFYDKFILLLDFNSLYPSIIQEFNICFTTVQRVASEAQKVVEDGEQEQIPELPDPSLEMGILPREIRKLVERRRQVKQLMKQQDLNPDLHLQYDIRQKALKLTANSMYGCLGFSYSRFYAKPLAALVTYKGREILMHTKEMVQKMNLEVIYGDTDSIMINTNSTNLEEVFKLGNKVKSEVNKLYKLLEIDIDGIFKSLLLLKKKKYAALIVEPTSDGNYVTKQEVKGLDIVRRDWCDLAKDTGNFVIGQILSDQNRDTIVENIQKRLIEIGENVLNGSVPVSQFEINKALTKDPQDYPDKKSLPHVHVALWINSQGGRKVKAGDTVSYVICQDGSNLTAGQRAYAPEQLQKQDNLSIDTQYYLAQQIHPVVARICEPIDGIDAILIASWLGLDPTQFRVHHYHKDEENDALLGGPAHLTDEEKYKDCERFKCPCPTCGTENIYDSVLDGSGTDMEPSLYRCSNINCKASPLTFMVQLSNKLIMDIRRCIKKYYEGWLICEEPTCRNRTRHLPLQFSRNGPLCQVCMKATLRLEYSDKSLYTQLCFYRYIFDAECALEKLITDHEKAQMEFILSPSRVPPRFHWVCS
Method: as §1

[1] = Cytotoxicity Huh-7 cells (MTS/PMS); format: cell-based; conditions: human, 3-day incubation
Method: Cytotoxicity of compounds for use in treating hyperproliferative diseases or disorders was tested in Huh-7 cells using tetrazolium salt MTS combined with the electron acceptor PMS in a 96-well format. Six doses of each compound was tested, starting at about 1.2 μM to 0.4 μM serially diluted in a final 1% DMSO solution in DMEM/F12 media. Terfenadine was used as a positive control. Cells were seeded at 2.5×10^5 cells/mL in each well of the 96-well plates in a final volume of 0.1 mL, and then incubated at 37° C. in the presence of 5% CO2 overnight. Compounds (in media) were added the following day and the treated cells were incubated another 3-days at 37° C. in the presence of 5% CO2. After the 3-day incubation, 20 μL of MTS/PMS (3-(4,5-dimethylthiazol-2-yl)-5-(3-carboxymethoxy-phenyl)-2-(4-sulfophenyl)-2H-tetrazolium) was added to each well. After about a one to four hour incubation of MTS/PMS at 37° C. and 5% CO2—that is, until an OD490 absorbance of ≧0.6 for the wells containing cells with media only, the level of cytotoxicity at each concentration was calculated. […] Dose response results from the cytotoxicity assay (CC50) are provided in Table 4 in comparison with IC50 data (from Table 2)

IC50 (human polymerase alpha)	Structure (SMILES)	inhibition at 10 µM (Calf polymerase alpha)	IC50 (Calf polymerase alpha)	CC50 at 3 days [1]
8 µM	Cc1ccc(NC(=O)C[C@H](CCCCN)NC(=O)Nc2ccc(OCc3ccccc3)cc2)cc1 [Compound 246, (S)-7-AMINO-3-[3-(4-BENZYLOXY-PHENYL)-UREIDO]-HEPTANOIC ACID P-TOLYLAMIDE]	46.6%	9.8 µM	45.9 µM
68 µM	Cc1ccc(NC(=O)[C@H](CCCCN)NC(=O)Nc2ccc(OCc3ccccn3)cc2)cc1 [Compound 299, (S)-6-AMINO-2-{3-[4-(PYRIDIN-2-YLMETHOXY)-PHENYL]-UREIDO}-HEXANOIC ACID P-TOLYLAMIDE]	16%	> 30 µM	> 100 µM
72 µM	NCCCC[C@H](NC(=O)Nc1ccc(OCc2ccccc2)cc1)C(=O)NCc1ccco1 [Compound 302, (S)-6-AMINO-2-[3-(4-BENZYLOXY-PHENYL)-UREIDO]-HEXANOIC ACID (FURAN-2-YLMETHYL)-AMIDE]	5%	> 30 µM	> 100 µM
